Measured values taken from patent US20120277440A1, “IMINO DERIVATIVES, PROCESS FOR PREPARATION THEREOF, AND IN[…]” (MEIJI SEIKA PHARMA CO., LTD., priority 2010, published 2012).

| melting point [°C] | Structure (SMILES) |
| --- | --- |
| 125 to 126 | CCS(=O)(=O)N=C1SCCN1Cc1ccc(Cl)nc1 |
| 76 to 78 | CC(=O)N=C1SCCN1Cc1ccc(Cl)nc1 |
